Test results from ChEMBL document CHEMBL1201862, “PubChem BioAssay data set” (2004).
Active and inactive are the calls of the source.

What was measured:
Estrogen receptor = molecular target: T1, Estrogen receptor (Homo sapiens, UniProt P03372);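 further: potency for inhibiting coactivator peptide recruitment to the receptor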
T1 sequence (P03372 whole entry): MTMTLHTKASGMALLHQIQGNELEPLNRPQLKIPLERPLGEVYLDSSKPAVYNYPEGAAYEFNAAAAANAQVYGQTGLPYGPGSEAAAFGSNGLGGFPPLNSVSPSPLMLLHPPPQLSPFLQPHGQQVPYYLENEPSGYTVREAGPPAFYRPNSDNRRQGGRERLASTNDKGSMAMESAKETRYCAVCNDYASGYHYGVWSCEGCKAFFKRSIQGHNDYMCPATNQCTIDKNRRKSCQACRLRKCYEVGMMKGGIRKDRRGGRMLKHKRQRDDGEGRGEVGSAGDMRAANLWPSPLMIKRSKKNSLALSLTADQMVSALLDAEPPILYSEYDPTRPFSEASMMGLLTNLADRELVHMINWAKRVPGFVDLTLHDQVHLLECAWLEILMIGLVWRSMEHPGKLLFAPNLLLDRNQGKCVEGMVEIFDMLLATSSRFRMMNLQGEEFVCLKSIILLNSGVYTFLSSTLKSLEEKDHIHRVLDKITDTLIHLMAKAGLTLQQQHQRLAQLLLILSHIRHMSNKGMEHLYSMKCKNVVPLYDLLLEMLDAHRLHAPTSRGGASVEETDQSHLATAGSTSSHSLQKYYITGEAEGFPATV

[1] = HIV-1 AD8 envelope cell-cell fusion blockers – cherry-pick, dose response (AID 652062); format: functional, cell-based;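 further: luciferase signal from cell-cell fusion driven by HIV-1 clade B AD8 Env; potency is for inhibitors of fusion seen as a drop in luminescence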
[2] = blockers of HIV-1 ZM109 envelope-driven cell-cell fusion – HeLa effector, CEM target cells, luciferase, cherry-pick, dose response (AID 652058); format: functional, cell-based;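 further: luciferase signal from HIV-1 Env mediated cell-cell fusion of effector and target cells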
[3] = blockers of HIV-1 envelope-mediated cell-cell fusion – cherry-pick, dose response (AID 652057); format: functional, cell-based
[4] = growth inhibition of yeast DHODH-expressing 3D7 parasites – SYBR Green, dry powder samples, dose response (AID 1159570); format: functional, cell-based;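 further: parasite growth measured after 72 hours of compound exposure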
[5] = Dd2 malaria parasite growth inhibition potency – SYBR Green, dry powder samples, dose response (AID 1159566); format: functional, cell-based;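 further: potency for growth inhibition with lower SYBR green DNA signal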
[6] = P. falciparum Dd2 growth inhibitors, dose response, SYBR Green, cherry-picked samples (AID 1159567); format: functional, cell-based
[7] = growth inhibition of PfATP4-mutant resistant parasites – NITD609-resistant line, SYBR Green, dry powder, dose response (AID 1159571); format: functional, cell-based;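 further: parasites synchronized at ring stage by sorbitol before testing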
[8] = molecular target: T2, Voltage-gated N-type calcium channel alpha-1B subunit/Amyloid beta A4 precursor protein-binding family A member 1 (Homo sapiens, UniProt Q00975+Q02410); format: protein assay
T2 sequence (Q00975 whole entry): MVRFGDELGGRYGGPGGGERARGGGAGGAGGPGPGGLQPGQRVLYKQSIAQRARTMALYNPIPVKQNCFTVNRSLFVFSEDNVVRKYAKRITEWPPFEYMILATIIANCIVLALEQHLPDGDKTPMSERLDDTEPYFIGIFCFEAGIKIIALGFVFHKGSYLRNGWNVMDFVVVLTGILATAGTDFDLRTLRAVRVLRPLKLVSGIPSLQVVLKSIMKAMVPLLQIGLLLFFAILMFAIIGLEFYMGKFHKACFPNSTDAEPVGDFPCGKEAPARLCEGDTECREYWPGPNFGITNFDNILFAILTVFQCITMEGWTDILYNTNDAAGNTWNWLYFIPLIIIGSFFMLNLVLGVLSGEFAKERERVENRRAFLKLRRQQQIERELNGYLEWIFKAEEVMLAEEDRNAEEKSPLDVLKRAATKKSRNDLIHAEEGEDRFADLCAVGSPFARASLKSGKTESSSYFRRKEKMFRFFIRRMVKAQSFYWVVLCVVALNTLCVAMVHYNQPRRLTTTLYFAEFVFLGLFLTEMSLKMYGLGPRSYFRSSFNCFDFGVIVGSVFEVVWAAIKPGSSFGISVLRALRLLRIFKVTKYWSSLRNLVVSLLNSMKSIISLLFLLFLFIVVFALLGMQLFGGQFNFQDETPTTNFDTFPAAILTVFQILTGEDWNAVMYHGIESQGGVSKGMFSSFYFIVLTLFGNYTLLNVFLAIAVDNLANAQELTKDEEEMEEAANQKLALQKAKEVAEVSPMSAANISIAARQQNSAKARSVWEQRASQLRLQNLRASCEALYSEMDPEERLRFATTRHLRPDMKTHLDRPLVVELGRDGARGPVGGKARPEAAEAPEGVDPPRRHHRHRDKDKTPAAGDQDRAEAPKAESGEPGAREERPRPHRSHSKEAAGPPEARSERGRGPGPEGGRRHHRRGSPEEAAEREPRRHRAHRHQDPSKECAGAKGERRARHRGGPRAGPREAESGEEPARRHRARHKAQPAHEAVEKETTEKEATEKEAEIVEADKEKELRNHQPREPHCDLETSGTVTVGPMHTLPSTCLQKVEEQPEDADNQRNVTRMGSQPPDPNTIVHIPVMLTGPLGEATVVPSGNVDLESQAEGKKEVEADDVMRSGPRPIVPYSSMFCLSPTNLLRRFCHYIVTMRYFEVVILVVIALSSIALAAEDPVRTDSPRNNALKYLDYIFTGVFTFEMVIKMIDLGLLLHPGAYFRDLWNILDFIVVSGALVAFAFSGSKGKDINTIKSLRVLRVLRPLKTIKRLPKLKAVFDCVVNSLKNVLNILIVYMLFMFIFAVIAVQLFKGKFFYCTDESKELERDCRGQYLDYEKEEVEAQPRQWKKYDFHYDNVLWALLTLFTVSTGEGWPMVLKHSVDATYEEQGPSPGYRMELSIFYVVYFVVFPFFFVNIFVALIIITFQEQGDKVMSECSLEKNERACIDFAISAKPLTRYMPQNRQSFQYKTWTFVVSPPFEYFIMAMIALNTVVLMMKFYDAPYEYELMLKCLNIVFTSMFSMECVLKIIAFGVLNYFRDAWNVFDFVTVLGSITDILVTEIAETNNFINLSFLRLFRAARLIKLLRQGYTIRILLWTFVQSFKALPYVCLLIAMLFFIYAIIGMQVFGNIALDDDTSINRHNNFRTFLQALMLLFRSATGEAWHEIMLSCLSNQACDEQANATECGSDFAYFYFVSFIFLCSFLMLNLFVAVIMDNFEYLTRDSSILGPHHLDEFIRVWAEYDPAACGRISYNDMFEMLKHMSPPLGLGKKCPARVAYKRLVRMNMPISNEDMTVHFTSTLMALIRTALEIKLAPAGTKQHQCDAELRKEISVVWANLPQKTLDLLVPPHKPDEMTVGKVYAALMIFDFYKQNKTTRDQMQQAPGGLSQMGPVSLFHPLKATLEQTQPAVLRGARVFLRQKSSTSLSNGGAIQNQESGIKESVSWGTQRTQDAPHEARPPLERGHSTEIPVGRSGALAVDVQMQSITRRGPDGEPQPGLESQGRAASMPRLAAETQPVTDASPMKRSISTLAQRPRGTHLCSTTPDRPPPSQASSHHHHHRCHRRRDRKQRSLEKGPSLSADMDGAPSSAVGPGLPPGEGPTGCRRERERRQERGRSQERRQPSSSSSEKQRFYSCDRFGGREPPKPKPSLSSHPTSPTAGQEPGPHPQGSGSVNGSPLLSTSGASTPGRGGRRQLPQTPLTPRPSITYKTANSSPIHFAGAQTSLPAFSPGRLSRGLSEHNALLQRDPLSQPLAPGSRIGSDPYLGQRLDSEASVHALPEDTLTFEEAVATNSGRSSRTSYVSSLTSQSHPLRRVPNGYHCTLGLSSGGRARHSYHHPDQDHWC
T2 sequence (Q02410 whole entry): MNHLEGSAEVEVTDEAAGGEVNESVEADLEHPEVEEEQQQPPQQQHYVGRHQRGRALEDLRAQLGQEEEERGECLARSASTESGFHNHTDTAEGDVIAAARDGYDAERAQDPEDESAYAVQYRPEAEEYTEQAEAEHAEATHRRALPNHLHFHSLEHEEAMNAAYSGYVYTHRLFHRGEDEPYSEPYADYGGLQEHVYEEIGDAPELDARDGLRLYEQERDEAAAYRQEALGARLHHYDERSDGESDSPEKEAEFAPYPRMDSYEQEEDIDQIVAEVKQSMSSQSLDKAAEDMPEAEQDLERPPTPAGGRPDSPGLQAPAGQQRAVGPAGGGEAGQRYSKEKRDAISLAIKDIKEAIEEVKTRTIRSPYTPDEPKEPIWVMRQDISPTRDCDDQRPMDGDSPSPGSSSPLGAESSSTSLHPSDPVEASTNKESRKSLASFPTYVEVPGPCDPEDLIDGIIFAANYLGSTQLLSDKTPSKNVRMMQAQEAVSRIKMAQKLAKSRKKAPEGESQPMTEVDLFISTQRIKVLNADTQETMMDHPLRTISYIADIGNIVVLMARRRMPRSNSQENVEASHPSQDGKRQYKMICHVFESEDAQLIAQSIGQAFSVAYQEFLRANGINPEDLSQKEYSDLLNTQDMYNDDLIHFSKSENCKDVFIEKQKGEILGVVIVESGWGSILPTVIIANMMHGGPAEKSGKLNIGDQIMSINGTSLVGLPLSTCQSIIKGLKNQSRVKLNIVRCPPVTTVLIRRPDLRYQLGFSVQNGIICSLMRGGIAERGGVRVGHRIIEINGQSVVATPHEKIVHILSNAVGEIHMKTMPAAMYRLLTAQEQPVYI

[9] = HIV-1 Vif–A3G interaction blockers – biochemical, TR-FRET, GST-Vif 1-94, biotin-A3G peptide, dose response retest, primary screen (AID 1117319); format: functional;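 further: TR-FRET signal of purified GST-Vif binding a biotinylated A3G peptide; inhibitors lower the FRET signal by blocking Vif and A3G binding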
[10] = molecular target: T2, Voltage-gated N-type calcium channel alpha-1B subunit/Amyloid beta A4 precursor protein-binding family A member 1; format: protein assay; remark: listed apart in the source
[11] = molecular target: Induced myeloid leukemia cell differentiation protein Mcl-1 (Homo sapiens, UniProt Q07820); format: functional
Induced myeloid leukemia cell differentiation protein Mcl-1, sequence (Q07820 whole entry): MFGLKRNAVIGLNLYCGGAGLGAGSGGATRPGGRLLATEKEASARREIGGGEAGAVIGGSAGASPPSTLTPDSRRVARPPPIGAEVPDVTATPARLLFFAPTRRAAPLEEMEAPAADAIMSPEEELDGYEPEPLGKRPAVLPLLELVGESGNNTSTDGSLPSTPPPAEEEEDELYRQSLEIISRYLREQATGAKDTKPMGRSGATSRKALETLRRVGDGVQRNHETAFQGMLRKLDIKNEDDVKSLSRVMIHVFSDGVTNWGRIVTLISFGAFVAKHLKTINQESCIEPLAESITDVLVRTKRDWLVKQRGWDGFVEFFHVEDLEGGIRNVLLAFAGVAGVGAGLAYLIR

[12] = molecular target: FAD-linked sulfhydryl oxidase ALR (Homo sapiens, UniProt P55789); test: ALR-catalysed DTT oxidation blockers – biochemical, H2O2 detection, luminescence, cherry-pick, dose response (AID 493248)
FAD-linked sulfhydryl oxidase ALR, sequence (P55789 whole entry, the tested form may be a part): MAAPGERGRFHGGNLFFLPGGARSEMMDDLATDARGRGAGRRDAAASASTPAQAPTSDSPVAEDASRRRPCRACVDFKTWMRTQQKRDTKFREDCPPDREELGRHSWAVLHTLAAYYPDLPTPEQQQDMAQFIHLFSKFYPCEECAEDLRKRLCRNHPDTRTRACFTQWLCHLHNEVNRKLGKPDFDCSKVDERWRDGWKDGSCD

[13] = molecular target: Disintegrin and metalloproteinase domain-containing protein 17 (Homo sapiens, UniProt P78536); test: inhibition of ADAM17 substrate cleavage – biochemical, quenched FRET substrate, counter-screen for ADAM10 exosite inhibitor project, dose response (AID 743253)
Disintegrin and metalloproteinase domain-containing protein 17, sequence (P78536 whole entry, the tested form may be a part): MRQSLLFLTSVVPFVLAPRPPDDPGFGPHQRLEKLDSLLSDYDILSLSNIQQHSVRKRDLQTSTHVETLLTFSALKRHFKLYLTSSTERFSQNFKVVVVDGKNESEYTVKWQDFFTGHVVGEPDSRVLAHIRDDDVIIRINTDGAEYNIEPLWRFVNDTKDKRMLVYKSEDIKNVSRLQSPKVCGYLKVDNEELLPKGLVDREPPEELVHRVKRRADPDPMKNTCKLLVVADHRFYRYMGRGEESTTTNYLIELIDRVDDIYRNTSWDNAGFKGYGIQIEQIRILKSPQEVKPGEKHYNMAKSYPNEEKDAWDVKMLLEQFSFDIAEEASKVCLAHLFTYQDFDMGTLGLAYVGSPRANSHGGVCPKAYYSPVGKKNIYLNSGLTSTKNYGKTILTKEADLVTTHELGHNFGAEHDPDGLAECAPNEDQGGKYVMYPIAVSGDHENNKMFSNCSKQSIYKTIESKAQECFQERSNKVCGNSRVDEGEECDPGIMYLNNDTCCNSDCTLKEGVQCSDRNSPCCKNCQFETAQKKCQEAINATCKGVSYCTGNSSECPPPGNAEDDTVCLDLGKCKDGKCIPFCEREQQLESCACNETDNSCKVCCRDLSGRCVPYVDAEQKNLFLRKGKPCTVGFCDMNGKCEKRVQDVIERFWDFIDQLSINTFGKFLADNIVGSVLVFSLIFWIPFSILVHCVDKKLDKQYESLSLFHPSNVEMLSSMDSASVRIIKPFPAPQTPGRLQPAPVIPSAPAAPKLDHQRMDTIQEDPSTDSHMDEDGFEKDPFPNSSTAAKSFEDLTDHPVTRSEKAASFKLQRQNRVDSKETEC

[14] = potency of ADAM10 substrate cleavage blockers – biochemical, QFRET, dose response (AID 743254);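 further: ADAM10 enzyme with the DM2 quenched FRET peptide as substrate; EDANS fluorescence gain as the protease cuts the substrate; inhibitor potency against ADAM10 proteolytic activity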
[15] = A cytotoxicity screen of small molecule inhibitors of the PhoP region in Salmonella typhi identified in the primary screen. [Related pubchem assays: 1850, 1864, 1985 ]; format: functional
[16] = NIH3T3 cell viability loss – ATP luminescence, mouse fibroblasts, counter-screen, dose response (AID 2010); format: functional, cell-based;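 further: cells exposed to compound for about 90 hours before reading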
[17] = Trypanosoma cruzi growth suppression in host cells – NIH3T3 host cells, beta-gal luminescence, confirmation (AID 2044); format: functional, cell-based;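 further: intracellular parasites grown in NIH/3T3 mouse fibroblasts as host cells; luminescent beta-galactosidase reporter signal from transgenic T. cruzi replicating inside host cells; inhibitors lower the luminescence signal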
INS1 = test: INS-1E survival protection against cytokine death – cell-based, luminescence, retest, dose response (AID 449756); format: functional; conditions: Rattus norvegicus;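 further: cell death triggered by IL-1 beta plus TNF-alpha plus IFN-gamma mixture; protective hits raise ATP signal compared with cytokine alone wells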
[18] = fluconazole-exposed Candida albicans growth modulators – fluorescence, retest, confirmation (AID 2467); format: functional, cell-based
[19] = NIH-3T3 fibroblast cytotoxicity, dose response, cytotoxicity control, cell-based, fluorescence, Alamar Blue, secondary assay (AID 2327); format: functional;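 further: NIH-3T3 mouse fibroblasts cultured with fluconazole at 8 µg/mL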
Estrogen receptor beta = Estrogen receptor beta (Homo sapiens, UniProt Q92731);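 further: recombinant ER-beta bound to coactivator SRC1 peptide in presence of estradiol agonist; inhibitors block coactivator peptide binding and lower the FRET signal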
Estrogen receptor beta, sequence (Q92731 whole entry): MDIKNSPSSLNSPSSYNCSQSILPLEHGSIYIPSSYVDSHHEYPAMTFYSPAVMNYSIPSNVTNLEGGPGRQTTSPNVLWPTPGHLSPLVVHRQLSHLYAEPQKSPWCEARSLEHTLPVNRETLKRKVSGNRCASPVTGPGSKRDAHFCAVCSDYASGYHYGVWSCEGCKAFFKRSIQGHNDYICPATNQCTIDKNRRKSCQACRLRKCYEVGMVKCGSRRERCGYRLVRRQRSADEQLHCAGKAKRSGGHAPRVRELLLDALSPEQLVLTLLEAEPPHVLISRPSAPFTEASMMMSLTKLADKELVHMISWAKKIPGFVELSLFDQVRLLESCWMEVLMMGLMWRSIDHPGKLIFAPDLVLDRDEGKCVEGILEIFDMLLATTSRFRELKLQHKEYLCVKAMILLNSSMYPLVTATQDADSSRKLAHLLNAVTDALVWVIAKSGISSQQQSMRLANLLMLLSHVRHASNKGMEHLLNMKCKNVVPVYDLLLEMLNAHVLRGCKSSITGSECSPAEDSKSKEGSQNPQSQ

[20] = A549 cell cytotoxicity, dose response, cytotoxicity control, plate reader, cherry-pick, antagonist series (AID 743412); format: functional, cell-based
[21] = viability loss in HEK293 cells – cell-based, plate reader, cherry-picked samples, cytotoxicity control, dose response (AID 743446); format: functional
[22] = toxicity toward HepG2 liver cells – cell-based, plate reader, cherry-pick, antagonist series, cytotoxicity control, dose response (AID 743416); format: functional
[23] = blockers of bursicon-stimulated LGR2 cAMP reporter – cell-based, HEK293, CRE-luciferase reporter, cherry pick, set 2, dose response (AID 743343); format: functional;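 further: transfected cells were stimulated with diluted bursicon conditioned medium after compound addition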

SMILES: COCCOC(=O)c1[nH]c2c(c1C)C(=O)CC(c1ccco1)C2 (stereo unspecified)
- IC50 (Estrogen receptor): 19.5 µM (active)

SMILES: C[C@@H](NC(=O)C[C@H]1C[C@@H]2c3cc(NS(=O)(=O)c4ccc(F)cc4)ccc3O[C@@H]2[C@H](CO)O1)c1ccccc1
- AC50 [1]: 31.7 µM (active)
- AC50 [2]: 3.32 µM (active)
- AC50 [3]: 1.12 µM (active)
- AC50 [4]: 2.76 µM (active)
- AC50 [5]: 1.4 µM (active)
- AC50 [6]: 2.22 µM (active)
- AC50 [7]: 1.09 µM (active)

SMILES: O=[N+]([O-])c1ccc(-c2c[nH]c(S)n2)cc1
- IC50 [8]: 11.3 µM (active)
- IC50 [9]: > 100 µM (active)
- IC50 [10]: > 50 µM (inactive)
- IC50 [11]: 1.38 µM (active)
- AC50 [12]: 1.99 µM (active)

SMILES: COc1ccc(NC(=O)c2ccc(-c3ccccc3)cc2)cc1NS(=O)(=O)c1ccc(F)cc1
- IC50 [13]: > 69.5 µM (inactive)
- IC50 [14]: > 69.5 µM (inactive)

SMILES: CCCNC(=O)C1CCN(c2ccc(S(=O)(=O)N3CCOCC3)cc2Cl)CC1
- EC50 [15]: > 50 µM (active)

SMILES: Cc1cc(-c2ccccc2)cc(-c2ccccc2)[n+]1CCc1ccccc1.[O-][Cl+3]([O-])([O-])[O-]
- EC50 [16]: > 60 µM (not active)
- EC50 [17]: < 0.1 µM (active)
- AC50 (INS1): < 0.195 µM (active)
- EC50 (cells): 0.07 µM (active)
- EC50 [18]: 2.98 µM (active)
- EC50 [19]: > 160 µM (inactive)

SMILES: Nc1[nH]n(-c2ccccc2)c(=O)c1/N=N/c1ccccc1[N+](=O)[O-]
- IC50 (Estrogen receptor beta): > 50 µM (not active)

SMILES: COc1cccc(NC(=O)CN(C)C(C)C(=O)Nc2ccc(S(=O)(=O)N3CCOCC3)cc2)c1 (stereo unspecified)
- EC50 [15]: > 50 µM (active)

SMILES: CCN(CC)CCNC(=O)c1cc(Cl)c(N)cc1OC
- IC50 (Estrogen receptor beta): > 50 µM (not active)

SMILES: O=C(Nc1ccon1)C12CC3CC(C1)CC(n1cnc([N+](=O)[O-])n1)(C3)C2
- EC50 [16]: > 60 µM (not active)
- EC50 [17]: < 0.1 µM (active)
- EC50 (cells): 0.088 µM (active)

SMILES: COc1ccc2cc(C#N)c(Nc3cccc(F)c3)nc2c1
- AC50 [20]: > 52 µM (inactive)
- AC50 [21]: > 52 µM (inactive)
- AC50 [22]: > 52 µM (inactive)

SMILES: O=C(CSc1nc2ccccc2[nH]1)Nc1nc(-c2cccc(Br)c2)cs1
- IC50 [13]: > 69.5 µM (inactive)
- AC50 [20]: 24.2 µM (active)
- AC50 [23]: 35.4 µM (active)
- AC50 [22]: 38.4 µM (active)
- IC50 [14]: > 69.5 µM (inactive)
